The results in this text go back to EP1379135B1, “FORMULATIONS COMPRISING ENTRAPPED ACTIVE INGREDIENTS AND USES THEREOF” (THE SCRIPPS RESEARCH INSTITUTE, priority 2001, dated 2002).

One series has as its system chondrocytes. The series is described as follows: Cell viability, MTT assay. Type of series: cell-based, human. The settings on record: up to 20 mM. (Tetrazolium dyes change colour on reduction, which living cells bring about.)
Series [1] in a line: In vivo retention of GlcNAc in knee joints after intra-articular administration. The arrangement: species or system Wistar rats. The method, then: 50 µl of GlcNAc solution (unlabeled 2.69 mg/ml, labeled 5 µCi/ml, unlabeled:labeled molecule 10,000:1) was injected into knee joint of six rats. These rats (2 animals/time point) were sacrificed at 0, 30 min, and 2 hr after administration of a GlcNAc solution. Two other two rats were injected with normal saline as negative controls. All joints were removed and homogenized with 5 ml of normal saline at 16,000 rpm for about 30 sec. 100 µl of the tissue homogenate was added to 500 µl tissue solubilizer. The solution was incubated at 50 °C for 16 hrs, mixed with 30 µl of glacial acetic acid and 5 ml of liquid scintillation cocktail. The [^3H]GlcNAc activity was measured by a liquid scintillation counter.
Fourteen rats were used for each liposomal formulation. 50 µl of liposome (prepared as disclosed herein, 1.13 µCi/ml, GlcNAc concentration was 0.61 mg/ml, unlabeled:labeled molecule 10,000:1) was injected into each knee joint in twelve rats. Another two rats were injected with 50 µl of normal saline as negative controls. Animals (2 rats/time point) were sacrificed at time points corresponding to 0, 1, 3, 7, 14, 21, and 28 days after administration of GlcNAc. The knee joints were removed and [^3H]GlcNAc activity was determined as disclosed herein.

Another series concerns COX-2 mRNA. The series is described as follows: COX-2 mRNA expression in IL-1β stimulated chondrocytes (Northern Blot). The series is classed as cell-based, human. As for the experimental part:
Total RNA was isolated from 2 x 10^6 chondrocytes stimulated using the STAT-60 reagent (Tel-Test, Friendswood, TX). RNA for each sample was quantified photometrically, and 5 µg was separated on 1.2% agarose, 6% formaldehyde gels. After electrophoresis, the gels were photographed, and the RNA was transferred onto HybondN nylon membranes (BRL, Baithesburg, MD) by capillary blotting. Membranes were air-dried and incubated for 2 hrs at 80°C. Prehybridization was done for 2 hrs at 60°C in 5 x SCC, 1 mM EDTA, 0.2% SDS and 5 x Denhardt solution. Radio-labeled probe was added and hybridization was carried out overnight at 60°C. After hybridization, the filters were rinsed twice in 2 x SSC, 0.1% SDS, washed once in 2 x SCC, 0.1 % SDS at 60°C and once in 0.2 x SCC, 0.1 % SDS at 60°C. The membranes were covered with plastic wrap and exposed with an intensifying screen for 12 hr at -70°C. The probes used for the hybridization were prepared as described earlier (Geng et al., (1993) J. Immunol. 151:6692; Geller et al., (1993) Proc. Natl. Acad. Sci. USA 90:3491).

Another series has as its system iNOS protein. Put plainly: iNOS protein expression (Western Immunoblot). The series is classed as cell-based, human. As for the experimental part:
(§1) Whole cell extracts were prepared from 3 x 10^6 chondrocytes stimulated as described above by lysing the cells on the plate with ice cold lysis buffer (10 mM TrisHCl pH 7.6, 158 mM NaCl, 1 mM EDTA, 0.1% SDS, 1% Triton X-100, leupeptin […], aprotinin 1µg/ml, and 0.5 mM PMSF), which was added immediately before use. The lysates were transferred to Eppendorf tubes and centrifuged at 20,000 g for 30 min at 4 °C. The supernatants were transferred into fresh tubes, and the protein concentration was determined by Bradford assay. Similar amounts of protein were separated by 10% SDS PAGE and transferred to a nitrocellulose filter (Schleicher & Schuell, Keene, NH) by electroblotting. The filter was blocked overnight in 5% milk powder/TBS-T solution and then further incubated with one of the following antibodies: anti-iNOS (C-19, Santa Cruz Biotechnology, Inc., Santa Cruz, CA), anti-COX-2 (Cayman Chemical, Ann Arbor, MI), anti-COX-1 (H-3, Santa Cruz Biotechnology, Inc.), anti-phospho-JNK (phosphoThr 183 /Tyr 185, New England Biolabs, Inc., Beverly, MA), anti-phospho-p38MAP (phospho-Thr […]/Tyr 182, New England Biolabs, Inc.) or anti-phospho-ERK (phosphoThr 180/Tyr 182, New England Biolabs, Inc.) for 2 hrs. […]
(Immunoblotting shows a protein as a band on a membrane.)

In the next series the test system is COX-1 protein. Put plainly: COX-1 protein expression in chondrocytes (Western Immunoblot). The series is classed as cell-based, human. As for the experimental part: as §1
Series [2] relates to TNFα induced nitric oxide (NO) production in normal human articular chondrocytes. Put plainly: TNFα induced NO production in chondrocytes. Type of series: cell-based.
In another series the test system is JNK. Put plainly: IL-1β induced MAP kinase activation, JNK (phospho Western blot). The series is classed as cell-based, human. The settings on record: induced by IL-1β. As for the experimental part: as §1
In the next series the test system is hexosaminidase. The series is described as follows: IL-1β mediated increase in hexosaminidase secretion in chondrocytes. Type of series: cell-based, human.
Another series has as its system p38. Put plainly: IL-1β induced MAP kinase activation, p38 (phospho Western blot). The series is classed as cell-based, human. The following applies: induced by IL-1β. As for the experimental part:
as §1

Series [3] is described as follows: Induction of TGFα1 in chondrocytes with IL-1β. The series is classed as cell-based, human. The following applies: together with IL-1β.

As usually defined, the half-life is the time in which the quantity being followed falls by half. Low readings indicate fast loss, high ones slow loss.

`CC(=O)N[C@H]1C(O)O[C@H](CO)[C@@H](O)[C@@H]1O` (some centres unmarked) [GlcNAc, N-acetylglucosamine]: the cell viability entry in the series on chondrocytes is reported as “Neither GA nor GlcNAc at dosages up to 20 mM affected cell viability”. In [1] (Wistar, rat, knee joint homogenate, 0.1345 mg per knee joint, single intra-articular administration, saline solution), this molecule returned a half-life of 4.1 min. In addition, the “GlcNAc retention at the rat knee joints” value in series [1] (after intra-articular administration) is listed as “moved out of the rat joint rapidly”. The “expression of COX-2 mRNA” value in the series on COX-2 mRNA was “inhibited”. Besides, the “expression of iNOS protein” value in the series with iNOS protein is given as “strongly inhibited”. Moreover, the “expression of the constitutively expressed COX-1 protein” value in the series with COX-1 protein is recorded as “did not affect”. For the same molecule, in [2], the “TNFα induced nitric oxide (NO) production” value is on record as “inhibit”. The “JNK MAP kinase activation” value in the series with JNK is on record as “does not inhibit”. For the same molecule, the “IL-1β mediated increase in hexosaminidase secretion” value in the series on hexosaminidase is “did not suppress”. For the same molecule, the “p38 MAP kinase activation” value with p38 is recorded as “does not inhibit”. For the same molecule, in series [3], the “induction of TGFα1” value was “synergistic with IL-1β”.
